How the values were obtained:
Type in all cases: cell-based, human
COUP-TFII (NR2F2) = assay: qPCR of COUP-TFII after RA treatment; details: day 31 GFP+ CMs, RA-treated vs control differentiation
Protocol: (§1) In order to determine the dynamics of COUP-TF expression following RA treatment, expression levels of both COUP-TFI and II were analyzed by qPCR at different time points and compared to control EBs. COUP-TFs were induced within 24 h of treatment with RA followed by dramatic increase in expression thereafter. […] The expression of COUP-TFs was maintained in differentiated CMs at day 31. COUP-TFI was expressed 20-fold higher, and COUP-TFII was enriched over 30-fold in hESC-atrial CMs compared to hESC-ventricular CMs (Fig4A and B). Antibodies selectively binding to COUP-TFI or COUP-TFII were used to verify the expression of these proteins. […]
(§2) atRA (Sigma) was diluted in DMSO to make a solution of 50 mmol/L which was further diluted in distilled water to have a stock solution of 0.0001 mol/L. atRA was used in a final concentration of 1 µmol/L in BPEL medium to direct atrial […]
(§3) Gene expression was determined on the HumanHT-12 v4 Expression BeadChip at ServiceXS, Leiden, The Netherlands. […]
(§4) For assessing gene expression by qPCR, cDNA was synthesized from approximately 1µ g of RNA obtained from three independent differentiations (iScript cDNA Synthesis Kit, BIO-RAD). Target identification was performed using SYBR Green (Applied Biosystems, Life technologies) and detected by CFX96 Real-Time PCR system (Bio-Rad). […]

COUP-TFI (NR2F1) = assay: qPCR of COUP-TFI after RA treatment; details: day 31 GFP+ CMs, RA-treated vs control differentiation
Protocol: as §1, §2, §3, §4

NKX2-5-eGFP/w hESCs = assay: Cardiac differentiation of hESCs with RA, flow cytometry for GFP at day 15
From the text: A cocktail of cytokines (Fig1A) was used to initiate cardiac differentiation in NKX2-5-eGFP/w hESCs as described previously (Ng et al, [2008]; Elliott et al, [2011]). To direct differentiating hESCs toward an atrial phenotype, timing and concentration of treatment with RA were carefully optimized (Supplementary Fig S1A–C). We hypothesized that specification of CM subtypes in vitro occurs post-mesoderm formation and prior to the onset of cardiac progenitor stage. Accordingly, embryoid bodies (EBs) were supplemented with RA from day 4, just after the transient expression of early cardiac mesoderm marker, MESP1, until day 7, a time point at which key transcription factors such as NKX2.5, GATA4 and MEF2C important for commitment and specification of cardiovascular lineages are activated (Supplementary Fig S1A).
Therefore, treatment of differentiating hESCs with 1 μmol/l of RA from day 4 to 7 was considered to be most suitable for driving atrial differentiation. As a control, every experiment included parallel differentiating cultures treated with 0.002% DMSO (the final concentration in RA-treated cultures) from day 4 to 7 (Fig1A).
A transgenic NKX2-5-eGFP/w hESC line that faithfully reports endogenous NKX2.5 expression by GFP was described previously (Elliott et al, [2011]). […]
as §3

Question: `CC1=C(/C=C/C(C)=C/C=C/C(C)=C/C(=O)O)C(C)(C)CCC1` [RA, all-trans retinoic acid] was tested. Which “COUP-TFII mRNA, hESC-atrial vs hESC-ventricular CMs” value (COUP-TFII (NR2F2)) did it give?
Answer: Its value is “over 30 fold”.

Question: What about the “COUP-TFI mRNA, hESC-atrial vs hESC-ventricular CMs” value (COUP-TFI (NR2F1)) of the same compound?
Answer: Its value is 20 fold.

Question: What about the “percentage of GFP+ cells at day 15” value (NKX2-5-eGFP/w hESCs; RA 1 μmol/l day 4 to 7, flow cytometry, control 65%) of the same compound?
Answer: The value was 50%.

Question: What about the “effect on cardiac differentiation (percentage of GFP+ cells at day 15)” value (NKX2-5-eGFP/w hESCs; RA 1–10 nmol/l day 4 to 7) of the same compound?
Answer: The value was “enhanced cardiac differentiation”.

Source: publication PMC4403042, “Atrial-like cardiomyocytes from human pluripotent stem cells are a robust preclinical model for assessing atrial-selective pharmacology” (EMBO Molecular Medicine, 2015)
